Assay results taken from patent publication US9168269B2, “Inhibitors of long and very long chain fatty acid metabolism as broad spectrum anti-virals” (THE TRUSTEES OF PRINCETON UNIVERSITY, priority 2010, dated 2015).
Where “and” joins values, the source holds several entries; their conditions need not be identical. Identical values can stand only once. Like-named read-outs stand apart in the source and are kept apart here.

Key:
influenza A = type: cell-based; conditions: for magnitude of the therapeutic effect: 10 μg/mL TOFA
HIV-1 = test: proposed combination of TOFA and enfurtivide, HIV-1-infected C8166 cells; type: cell-based; conditions: for magnitude of the therapeutic effect: 10 μg/mL TOFA
Text: Non-limiting examples of assays that could be performed to assess the effect of a combination of an ACC inhibitor and an entry inhibitor on HIV-1 replication follow. Assays for TOFA-mediated antiviral activity using HIV-1-infected C8166 cells have been described in (WO 2009/023059). In each assay, various concentrations of TOFA can be combined with various concentrations of enfurtivide and assayed for their effect on virus replication. In one preferred embodiment, a physiological concentration of enfurtivide is held constant as the dose of TOFA is increased. Control cultures are treated with no drug, enfurtivide alone or the various concentrations of TOFA alone. Samples are taken at 24, 48, 72 and 96 hours after initiation of drug treatment. The antiviral effect of enfurtivide plus each concentration of TOFA is then compared to the activity of enfurtivide alone or the various concentrations of TOFA alone. Uptake of neutral red dye is used to determine the relative level of toxicity in duplicate cultures at each time a sample is harvested. […] At 10 μg/mL of TOFA, the magnitude of the therapeutic effect is increased from ^˜10-fold in the absence of enfurtivide to ^˜100-fold in its presence. […] Similar results are obtained for other entry inhibitors.

[1] = test system: viral growth and/or replication; test: proposed combination of TOFA and ELOVL inhibitor, virus replication; type: cell-based; conditions: presence of a therapeutically effective concentration of ELOVL inhibitor
HCMV AD169 strain = test: microbe, parasite or virus in culture; type: cell-based, human cytomegalovirus; conditions: 5 μg/ml
[2] = test system: HCV JFH1 strain derivative; test: release of infectious HCV from Huh7.5 cells, TCID50 assay
Method: Huh7.5 cells were infected with a derivative of HCV JFH1 strain (MOI=0.1 TCID50/cell). Infected cells were maintained in medium containing 10% fetal calf serum plus DMSO (0 nM triacsin C) or triacsin C at the indicated concentrations. Media were harvested at 72 h and infectious virus was quantified by standard TCID50 assay on Huh7.5 cells.
Virus yield in the medium at 72 h after infection was determined.
Huh7.5 cells were infected a derivative of HCV JFH1 strain (MOI=0.1 TCID50/cell) Infected cells were maintained in medium containing 10% fetal calf serum plus DMSO (0 μg/ml TOFA) or TOFA at the indicated doses. Media were harvested at 72 h and infectious virus was quantified by standard TCID50 assay on Huh7.5 cells.
Huh7.5 cells which was infected with HCV and treated with indicated amounts of TOFA (FIG. 21).

HCMV = test: proposed combination of TOFA and triacsin C, virus replication; type: cell-based, human cytomegalovirus; conditions: for magnitude of the therapeutic effect: 10 μg/mL TOFA

CCCCCCCCCCCCCCOc1ccc(C(=O)O)o1 [TOFA]
magnitude of the therapeutic effect (influenza A; absence of oseltamivir): ~10 fold
magnitude of the therapeutic effect (influenza A; presence of oseltamivir): ~100 fold
concentration of TOFA required to produce a 10-fold reduction in influenza A replication (influenza A; TOFA alone): ~10 μg/mL
concentration of TOFA required to produce a 10-fold reduction in influenza A replication (influenza A; presence of a pharmacologically acceptable concentration of oseltamivir): < 5 μg/mL
magnitude of the therapeutic effect (HIV-1; absence of enfurtivide): ~10 fold
magnitude of the therapeutic effect (HIV-1; presence of enfurtivide): ~100 fold
concentration of TOFA required to produce a 10-fold reduction in HIV-1 replication (HIV-1; TOFA alone): ~10 μg/mL
concentration of TOFA required to produce a 10-fold reduction in HIV-1 replication (HIV-1; presence of a pharmacologically acceptable concentration of enfurtivide): < 5 μg/mL
host cell toxicity, neutral red dye assay (host cell; combined use of TOFA and enfurtivide): does not increase host cell toxicity
host cell toxicity, neutral red dye assay (host cell; combined use of TOFA and oseltamivir): does not increase host cell toxicity
host cell toxicity, neutral red dye assay (host cell; combined use of TOFA and triacsin C): does not increase host cell toxicity
reduction of the TOFA concentration required to reduce viral growth and/or replication by 10-fold [1]: ≥ 2 fold
inhibition of HCMV replication (HCMV AD169 strain): > 500 fold
inhibition of release of infectious HCV particles ([2]; 5 μg/ml): > 500 fold
inhibition of release of infectious HCV particles ([2]; 10 μg/ml): > 1000 fold
concentration of TOFA required to produce a 10-fold reduction in HCMV replication (HCMV): ~10 μg/mL and < 5 μg/mL
magnitude of the therapeutic effect (HCMV; absence of triacsin C): ~10 fold
magnitude of the therapeutic effect (HCMV; presence of triacsin C): ~100 fold
